In ChEMBL document CHEMBL4229448 (Bioorg Med Chem Lett, 2018):
pIC50: −log10 of the molar value. Active and inactive are the calls of the source. The rule behind the calls is not given here.

Columns and labels:
SH-SY5Y = assay: Cytotoxicity against human SH-SY5Y cells assessed as decrease in cell viability after 48 hrs by MTT assay; type: cell-based
Acetylcholinesterase [1] = target: T1, Acetylcholinesterase (Homo sapiens, UniProt P22303); assay: Inhibition of human recombinant AChE using acetylthiocholine as substrate by UV-visible spectrophotometric Ellman's method
[2] = target: Cholinesterase (Equus caballus) (UniProt P81908); assay: Inhibition of horse serum BuChE at 0.1 uM using acetylthiocholine as substrate by UV-visible spectrophotometric Ellman's method
Cholinesterase [3] = target: T2, Cholinesterase (Equus caballus, UniProt P81908)
Description: Inhibition of horse serum BuChE using acetylthiocholine as substrate after 60 mins by FRET assay

Acetylcholinesterase [4] = target: T1, Acetylcholinesterase; assay: Inhibition of human recombinant AChE at 0.05 uM using acetylthiocholine as substrate by UV-visible spectrophotometric Ellman's method
[5] = Half life in pH 6.5 fasted state simulated intestinal fluid; type: ADME
[6] = Effective permeability of the compound at 100 ug/ml after 16 hrs by PAMPA
[7] = Metabolic stability in human plasma assessed as compound remaining measured after 120 mins; type: ADME, cell-free; conditions: read-out: Stability
[8] = Half life in rat liver microsomes; type: ADME, microsome
Cholinesterase [9] = target: T2, Cholinesterase; assay: Inhibition of horse serum BuChE using acetylthiocholine as substrate by UV-visible spectrophotometric Ellman's method

Cholinesterase (Equus caballus), sequence (P81908 whole entry): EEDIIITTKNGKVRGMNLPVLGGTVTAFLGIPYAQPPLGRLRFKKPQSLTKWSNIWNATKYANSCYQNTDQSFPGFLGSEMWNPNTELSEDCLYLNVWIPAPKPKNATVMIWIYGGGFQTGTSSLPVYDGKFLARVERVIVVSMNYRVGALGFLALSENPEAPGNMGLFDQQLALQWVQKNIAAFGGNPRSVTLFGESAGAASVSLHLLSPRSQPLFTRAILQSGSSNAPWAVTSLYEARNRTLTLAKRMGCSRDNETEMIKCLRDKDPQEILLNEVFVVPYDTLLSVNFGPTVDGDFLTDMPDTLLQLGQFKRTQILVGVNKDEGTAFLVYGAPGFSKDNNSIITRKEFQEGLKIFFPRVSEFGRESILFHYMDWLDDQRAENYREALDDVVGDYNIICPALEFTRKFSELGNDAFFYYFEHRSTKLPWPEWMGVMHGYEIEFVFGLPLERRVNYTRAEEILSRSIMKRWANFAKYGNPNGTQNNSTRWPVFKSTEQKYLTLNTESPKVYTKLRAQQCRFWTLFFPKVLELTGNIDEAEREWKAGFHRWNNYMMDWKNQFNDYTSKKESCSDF
T2 sequence (P81908 whole entry): as above
T1 sequence (P22303 whole entry): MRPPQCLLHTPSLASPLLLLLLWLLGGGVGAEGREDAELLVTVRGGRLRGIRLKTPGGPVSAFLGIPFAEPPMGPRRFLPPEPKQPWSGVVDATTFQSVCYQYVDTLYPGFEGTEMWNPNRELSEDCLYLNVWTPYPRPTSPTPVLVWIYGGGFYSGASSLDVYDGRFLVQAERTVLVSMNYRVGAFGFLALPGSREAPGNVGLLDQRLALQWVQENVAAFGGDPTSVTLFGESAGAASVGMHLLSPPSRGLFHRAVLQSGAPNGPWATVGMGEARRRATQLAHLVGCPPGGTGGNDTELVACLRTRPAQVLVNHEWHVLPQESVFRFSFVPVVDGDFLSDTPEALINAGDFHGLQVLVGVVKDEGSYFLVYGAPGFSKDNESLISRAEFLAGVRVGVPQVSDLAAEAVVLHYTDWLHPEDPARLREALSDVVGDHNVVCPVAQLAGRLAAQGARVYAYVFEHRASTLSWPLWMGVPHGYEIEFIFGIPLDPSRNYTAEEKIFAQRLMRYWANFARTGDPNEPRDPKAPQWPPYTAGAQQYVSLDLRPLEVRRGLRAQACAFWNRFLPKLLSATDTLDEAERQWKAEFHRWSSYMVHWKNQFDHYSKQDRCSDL

| SMILES | pIC50 (SH-SY5Y) | pIC50 (Acetylcholinesterase [1]) | inhibition [2] | pIC50 (Cholinesterase [3]) | inhibition (Acetylcholinesterase [4]) | half-life [5] [h] | Papp at 16 h, 100 ug/ml [6] [nm/s] | remaining at 2 h [7] [%] | half-life [8] [h] | pIC50 (Cholinesterase [9]) |
| --- | --- | --- | --- | --- | --- | --- | --- | --- | --- | --- |
| COc1ccc2c(c1)C/C(=C/c1ccccc1-c1ccc3nc(N)ccc3c1)C2=O | < 4.30 | 7.83 | Active | 5.75 | Active | 9.63 | 243 | 96.1 | 3.78 | 7.88 |
| COc1ccc2c(c1)C/C(=C/c1ccccc1-c1ccccc1)C2=O | < 4.30 | 7.53 | Active | 5.48 | Active | 9.85 | 266 | 98.6 | 4.05 | 6.90 |
| COc1ccc2c(c1)C/C(=C/c1ccccc1-c1ccc3ccccc3c1)C2=O | < 4.30 | 7.49 | Active | 5.40 | Active | 10.2 | 285 | 99.2 | 4.65 | 7.00 |
| COc1ccc2c(c1)C/C(=C/C1CCN(Cc3ccccc3)CC1)C2=O | – | 7.36 | Active | – | – | – | – | – | – | 6.47 |
| COc1ccc(-c2ccccc2/C=C2/Cc3cc(OC)ccc3C2=O)cc1 | < 4.30 | 7.67 | Active | 5.67 | Active | 8.57 | 262 | 97.5 | 3.58 | 7.00 |
| CC[C@H]1OC(=O)[C@H](C)[C@@H](O[C@H]2C[C@@](C)(OC)[C@@H](O)[C@H](C)O2)[C@H](C)[C@@H](O[C@@H]2O[C@H](C)C[C@H](N(C)C)[C@H]2O)[C@](C)(O)C[C@@H](C)C(=O)[C@H](C)[C@@H](O)[C@]1(C)O [ERYTHROMYCIN] | – | – | – | – | – | 8.25 | – | – | – | – |
| CC(C)[N+](C)(CCOC(=O)C1c2ccccc2Oc2ccccc21)C(C)C [PROPANTHELINE] | – | – | – | – | – | – | – | 2.83 | – | – |
| C[C@@H](NC(=O)c1cc(C(=O)N[C@@H](Cc2ccccc2)[C@H](O)CNC2CC2)cc(N(C)S(C)(=O)=O)c1)c1ccccc1 | – | – | – | – | – | – | – | – | – | 7.84 |
